From US20230158057A1, “COMPOSITIONS AND METHODS FOR THE TREATMENT OF PAIN” (Duke University, priority 2020, published 2023)
Entries after “also recorded” stand apart in the source; their conditions may differ.

Legend:
[1] = test system: IFN-β; assay: YFP (IFN-β) expression in DRG neurons of Ifnb1YFP/YFP reporter mice; type: in vivo, mouse
Protocol: Genetic mouse models: All mouse procedures were approved by the Duke University Institutional Animal Care and Use Committee (IACUC) and complied with relevant ethical guidelines. Mice were housed in an animal facility approved by the Association for Assessment and Accreditation of Laboratory Animal Care (AAALAC) under a 12 h light/dark cycle with food and water available ad libitum. All commercially-available genetic mouse models were obtained from Jackson Labs and maintained on a C57BL/6J background, including: Ifnb1YFP reporter mice (strain #010818) 1, STING “goldenticket” knockout mice 2 (STINGgt/gt; strain #017537), STING floxed/conditional knockout mice 3 (STINGfx/fx; strain #031670), Ifnar1 global knockout mice (Ifnar1−/−; strain #028288), Ifnar1 floxed/conditional knockout mice 4 (Ifnar1fx/fx; strain #028256), cGAS knockout mice 5 (cGAS−/−; strain #026554), and RIG-I knockout mice (RIG-I−/−; strain #46070-JAX). Nav1.8-Cre mice 6, also maintained on a C57BL/6J background, were a gift from Rohini Kuner (University of Heidelberg). NOD.CB17-Prkdcscid mice were also obtained from Jackson Labs (strain #001303) and maintained in a NOD/ShiLtSz genetic background. Unless otherwise noted, all experiments were conducted in adult (8-12-week-old) mice. Animals were randomly assigned to each experimental group. Both males and females were included in each group in a sex-matched manner. […]

[2] = test system: rhesus macaques (Macaca mulatta); assay: Menthol gel-induced cold allodynia, cold-water tail-withdrawal assay in non-human primates; type: in vivo
Protocol: Behavioral testing in non-human primates: Five adult rhesus monkeys (Mucaca mulatta, 9.3-13.8 kg) were maintained in an AAALAC-approved facility at Wake Forest University School of Medicine in accordance with Wake Forest University IACUC regulations. Animals were individually housed in temperature- and humidity-controlled species-specific rooms maintained in a 12 h light/12 h dark cycle. All animals have been previously trained in the tail-withdrawal assay. All experimental procedures were conducted in accordance with the Guide for the Care and Use of Laboratory Animals standards adopted by the NIH. Drug infusion was through a previously implanted spinal catheter. Behavioral testing was performed by an experimenter who was blinded to the drug being administered. A cold-water tail-withdrawal assay was used to evaluate nociceptive responses to 16° C. water with a cut-off of 20 sec. 0.3 mL of 2% menthol gel (Millipore Sigma) was applied to the tail for 3 minutes to induce transient and reversible cold allodynia.

[3] = test system: LLC lung tumor nodules; assay: Lung metastases after intrafemoral LLC inoculation; type: in vivo, mouse; details: d17, 20 mg/kg i.p., vs vehicle or ZA
Source text: Visual and immunohistochemical analysis of lung metastases. Mice were deeply anesthetized with isoflurane and perfused intracardially with PBS, followed by 4% PFA. After the perfusion, lungs were removed from mice and post-fixed in the same fixative overnight. The samples were then dehydrated with a 30% sucrose solution, embedded in O.C.T. (Tissue Tek), and cryosectioned to produce 8 μm thick sections. For Hematoxylin and Eosin (H & E) staining, lung sections were rehydrated and stained with 0.1% Hematoxylin and 0.5% Eosin in sequence. After dehydration and clearance with HistoClear (Electron

[4] = test system: DRG nociceptors; assay: Whole-cell patch clamp recordings in whole-mount DRGs ex vivo; type: cell-based, mouse; details: PTX-treated Ifnar1-WT or Ifnar1-KO mice, ex vivo incubation 30 μM
Protocol: Whole-cell patch clamp recordings in whole-mount DRGs ex vivo: To test the effects of anti-IFNβ neutralizing antibodies, naïve male and female mice were utilized. […] To perform whole-cell patch clamp recordings in whole-mount DRGs, L1-L5 DRGs were carefully isolated and placed in oxygenated ACSF. Using a stereoscope, peripheral and central DRG projections and connective tissue were dissected away. DRGs were lightly digested for 20 minutes using an enzymatic mixture consisting of 0.32 ml collagenase A (1 mg/mL) and Trypsin (0.25%). […] Following incubation, DRGs were transferred to a recording chamber, where neurons could be visualized using a 40× water-immersion objective on an Olympus BX51WI microscope. The recording chamber was continuously perfused (2-3 ml/min) with ACSF. The pipette solution contained 140 mM KC1, 2 mM MgCl2, 10 mM HEPES, 2 mM Mg-ATP at pH 7.4. The resistance of the glass pipettes was 8-10 MΩ. Data were acquired and analyzed using the pClamp10 (Axon Instruments) software.

**Q.** Which “YFP (IFN-β) expression in DRG neurons” value [1] does the source give for `Nc1ncnc2c1ncn2[C@@H]1O[C@@H]2COP(=O)([S-])O[C@@H]3[C@H](O)[C@@H](COP([O-])(=S)O[C@H]2[C@H]1O)O[C@H]3n1cnc2c(N)ncnc21.[Na+].[Na+]` (stereo partly drawn) [ADU-S100, (2′-5′)-[P(R)]-5′-O-[(R)-hydroxymercaptophosphinyl]-P-thioadenylyl-adenosine cyclic dinucleotide] here?
**A.** increased after ADU-S100 treatment

**Q.** What about the “2% menthol gel-induced cold allodynia” value ([2]; i.t. catheter) of the same compound?
**A.** long-lasting and dose-dependent analgesia; also recorded: attenuated 2% menthol gel-induced cold allodynia in a dose-dependent manner

**Q.** What about the “intrathecal dose producing analgesia in NHPs” value ([2]; vs. 35 nmol in murine models) of the same compound?
**A.** 3 nmol

**Q.** And the lung tumor nodules [3]?
**A.** fewer lung tumor nodules

**Q.** What about the “action potential firing of DRG nociceptors” value [4] of the same compound?
**A.** dramatically reduced action potential firing in WT mice, and this effect was abolished in Ifnar1-deficient neurons
